Source: US8614223B2, “Pyrimidine hydroxy amide compounds as protein deacetylase inhibitors and methods of use thereof” (Acetylon Pharmaceuticals, Inc., priority 2010, dated 2013)

Legend:
HDAC1 = HDAC1 (Homo sapiens (Human), UniProt Q13547); assay: HDAC enzyme assay, HDAC1; settings: for HDAC1 fold over HDAC6 IC50 (selectivity for HDAC6): ratio HDAC1/HDAC6; for IC50: read-out: HDAC1 IC50
HDAC2 = HDAC2 (Homo sapiens (Human), UniProt Q92769); assay: HDAC enzyme assay, HDAC2; settings: for HDAC2 fold over HDAC6 IC50 (selectivity for HDAC6): ratio HDAC2/HDAC6; for IC50: read-out: HDAC2 IC50
Sequence of HDAC2 (Q92769 whole entry): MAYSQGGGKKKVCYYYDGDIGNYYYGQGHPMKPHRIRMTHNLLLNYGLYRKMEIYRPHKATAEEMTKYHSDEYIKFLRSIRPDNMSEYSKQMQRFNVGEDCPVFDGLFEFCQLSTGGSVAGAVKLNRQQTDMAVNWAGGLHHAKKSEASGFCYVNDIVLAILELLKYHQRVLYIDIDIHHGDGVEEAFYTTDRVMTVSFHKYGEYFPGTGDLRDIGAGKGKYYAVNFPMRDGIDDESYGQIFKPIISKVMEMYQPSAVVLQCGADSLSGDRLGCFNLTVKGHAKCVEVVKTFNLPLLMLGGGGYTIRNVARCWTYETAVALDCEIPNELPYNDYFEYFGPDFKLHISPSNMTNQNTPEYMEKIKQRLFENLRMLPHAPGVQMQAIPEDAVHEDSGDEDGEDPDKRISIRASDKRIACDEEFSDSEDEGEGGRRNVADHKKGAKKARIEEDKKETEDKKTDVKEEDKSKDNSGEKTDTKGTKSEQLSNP

HDAC3 = HDAC3 (Homo sapiens (Human), UniProt O15379); assay: HDAC enzyme assay, HDAC3; settings: for HDAC3 fold over HDAC6 IC50 (selectivity for HDAC6): ratio HDAC3/HDAC6; for IC50: read-out: HDAC3 IC50
Sequence of HDAC3 (O15379 whole entry): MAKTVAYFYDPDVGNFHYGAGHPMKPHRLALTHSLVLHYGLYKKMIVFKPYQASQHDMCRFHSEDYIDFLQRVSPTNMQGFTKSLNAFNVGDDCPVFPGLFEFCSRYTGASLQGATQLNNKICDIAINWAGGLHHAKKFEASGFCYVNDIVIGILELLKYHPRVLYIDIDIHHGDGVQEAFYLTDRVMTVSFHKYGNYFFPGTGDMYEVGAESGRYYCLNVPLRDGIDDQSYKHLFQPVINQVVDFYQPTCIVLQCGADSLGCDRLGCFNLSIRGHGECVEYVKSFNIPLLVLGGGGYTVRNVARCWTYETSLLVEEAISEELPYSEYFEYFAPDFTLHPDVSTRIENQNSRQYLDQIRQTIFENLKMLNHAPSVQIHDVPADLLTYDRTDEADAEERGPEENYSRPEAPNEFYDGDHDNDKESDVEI
Sequence of HDAC3 (Q9Y618 395-489 partner): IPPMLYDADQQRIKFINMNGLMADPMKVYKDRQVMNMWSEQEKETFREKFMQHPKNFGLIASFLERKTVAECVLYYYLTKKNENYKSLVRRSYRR

HDAC6 = HDAC6 (Homo sapiens (Human), UniProt Q9UBN7); settings: read-out: HDAC6 IC50
Sequence of HDAC6 (Q9UBN7 whole entry): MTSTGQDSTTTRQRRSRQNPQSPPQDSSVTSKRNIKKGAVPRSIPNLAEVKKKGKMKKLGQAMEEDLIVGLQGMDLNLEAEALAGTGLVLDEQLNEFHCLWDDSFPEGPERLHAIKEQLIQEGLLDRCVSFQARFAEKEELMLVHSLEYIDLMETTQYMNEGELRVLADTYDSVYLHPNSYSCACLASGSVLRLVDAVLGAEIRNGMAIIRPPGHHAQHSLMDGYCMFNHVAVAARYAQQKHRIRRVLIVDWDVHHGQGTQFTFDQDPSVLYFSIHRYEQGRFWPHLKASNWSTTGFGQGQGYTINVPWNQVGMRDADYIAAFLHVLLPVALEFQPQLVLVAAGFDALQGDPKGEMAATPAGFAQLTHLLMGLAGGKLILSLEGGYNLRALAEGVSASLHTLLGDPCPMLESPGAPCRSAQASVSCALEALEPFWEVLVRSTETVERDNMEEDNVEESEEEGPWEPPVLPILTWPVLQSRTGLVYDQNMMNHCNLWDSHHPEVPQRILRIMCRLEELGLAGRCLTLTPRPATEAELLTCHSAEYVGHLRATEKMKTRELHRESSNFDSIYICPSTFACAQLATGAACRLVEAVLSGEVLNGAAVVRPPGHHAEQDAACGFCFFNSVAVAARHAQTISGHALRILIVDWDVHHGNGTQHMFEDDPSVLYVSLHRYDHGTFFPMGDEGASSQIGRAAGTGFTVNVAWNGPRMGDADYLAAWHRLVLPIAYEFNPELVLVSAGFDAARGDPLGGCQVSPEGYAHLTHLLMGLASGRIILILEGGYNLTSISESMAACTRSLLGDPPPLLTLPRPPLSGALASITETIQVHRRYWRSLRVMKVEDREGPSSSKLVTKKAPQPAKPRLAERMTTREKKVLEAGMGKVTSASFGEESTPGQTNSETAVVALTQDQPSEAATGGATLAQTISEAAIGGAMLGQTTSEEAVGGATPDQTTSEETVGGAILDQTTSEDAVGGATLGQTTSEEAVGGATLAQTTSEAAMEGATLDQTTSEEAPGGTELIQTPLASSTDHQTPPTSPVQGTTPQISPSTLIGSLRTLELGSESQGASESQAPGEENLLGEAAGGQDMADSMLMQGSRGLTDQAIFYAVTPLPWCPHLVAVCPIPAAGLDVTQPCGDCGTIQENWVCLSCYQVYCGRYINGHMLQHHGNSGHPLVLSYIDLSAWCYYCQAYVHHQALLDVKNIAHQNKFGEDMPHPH

Sequence of HDAC1 (Q13547 whole entry): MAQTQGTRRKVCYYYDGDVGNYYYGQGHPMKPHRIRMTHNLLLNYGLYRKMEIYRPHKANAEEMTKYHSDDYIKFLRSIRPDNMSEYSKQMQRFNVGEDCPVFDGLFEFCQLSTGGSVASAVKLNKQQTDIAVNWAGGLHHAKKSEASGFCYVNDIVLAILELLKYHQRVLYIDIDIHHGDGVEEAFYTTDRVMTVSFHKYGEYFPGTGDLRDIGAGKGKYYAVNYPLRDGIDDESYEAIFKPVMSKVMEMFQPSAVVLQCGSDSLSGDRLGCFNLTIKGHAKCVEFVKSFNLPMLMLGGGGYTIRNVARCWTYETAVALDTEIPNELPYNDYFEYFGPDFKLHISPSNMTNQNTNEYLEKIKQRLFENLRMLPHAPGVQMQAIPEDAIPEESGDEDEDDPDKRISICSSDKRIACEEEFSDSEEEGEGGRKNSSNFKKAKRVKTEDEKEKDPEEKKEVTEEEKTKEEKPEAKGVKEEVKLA

Row | Structure (SMILES) | HDAC1 fold over HDAC6 IC50 (selectivity for HDAC6) (HDAC1) | IC50 (HDAC1) [nM] | HDAC2 fold over HDAC6 IC50 (selectivity for HDAC6) (HDAC2) | IC50 (HDAC2) [nM] | HDAC3 fold over HDAC6 IC50 (selectivity for HDAC6) (HDAC3) | IC50 (HDAC3) [nM] | IC50 (HDAC6) [nM]
1 | COc1ccc(Nc2ncc(C(=O)NO)cn2)cc1 [Compound 5] | (16.3x) | 247 | (26x) | 395 | (27.8x) | 421 | 15
2 | O=C(NO)c1cnc(Nc2cccc(N3CCOCC3)c2)nc1 [Compound 29] | (60.9x) | 464 | (106x) | 808 | (68.2x) | 520 | 8
3 | CC(Nc1ncc(C(=O)NO)cn1)(c1ccc(F)cc1)c1ccc(F)cc1 [Compound 96] | (271.8x) | 2340 | (286.2x) | 2460 | (662.8x) | 5710 | 9
4 | O=C(NO)c1cnc(Nc2cc(C(F)(F)F)cc(C(F)(F)F)c2)nc1 [Compound 15] | (102.2x) | 1410 | (100.8x) | 1390 | (134.3x) | 1850 | 14
5 | O=C(NO)c1cnc(NCc2ccccc2-c2ccccc2)nc1 [Compound 55] | (60.2x) | 460 | (76.8x) | 587 | (82.6x) | 631 | 8
6 | COc1ccc(C2(Nc3ncc(C(=O)NO)cn3)CC2)cc1OC [Compound 138] | (6.2x) | 50 | (6x) | 49 | (13.9x) | 113 | 8
7 | Cc1cccc(C)c1CNc1ncc(C(=O)NO)cn1 [Compound 54] | (64.4x) | 1370 | (98.9x) | 2100 | (73.7x) | 1570 | 21
8 | Cc1ccc(Nc2ncc(C(=O)NO)cn2)cc1 [Compound 4] | (22x) | 195 | (32.8x) | 290 | (32.9x) | 291 | 9
9 | O=C(NO)c1cnc(Nc2ccccc2)nc1 [Compound 1, N-hydroxy-2-(phenylamino)pyrimidine-5-carboxamide] | 20x |  | 30x |  | 27x |  | 7
10 | O=C(NO)c1cnc(NC2(c3ccc(F)cc3)CCOCC2)nc1 [Compound 150] | (66.1x) | 320 | (68.4x) | 330 | (367.7x) | 1780 | 5
11 | O=C(NO)c1cnc(NCc2ccc(F)cc2C(F)(F)F)nc1 [Compound 57] | (86x) | 526 | (116.6x) | 713 | (147.4x) | 901 | 6
12 | O=C(NO)c1cnc(Nc2cccc(Cl)c2)nc1 [Compound 17] | (33.5x) | 182 | (29.6x) | 161 | (36.5x) | 198 | 5
13 | O=C(NO)c1cnc(Nc2ccc(F)cc2)nc1 [Compound 3] | (26.7x) | 210 | (44.1x) | 347 | (44.9x) | 354 | 8
14 | O=C(NO)c1cnc(NC2(c3ccccc3)CCCCC2)nc1 [Compound 84] | (302.2x) | 2230 | (403.4x) | 2970 | (613x) | 4520 | 7
15 | O=C(NO)c1cnc(Nc2ccc(Cl)cc2)nc1 [Compound 6] | (10.1x) | 202 | (11.6x) | 231 | (13.3x) | 266 | 20

Continued by falling IC50 (HDAC6), values first:

Row | HDAC1 fold over HDAC6 IC50 (selectivity for HDAC6) (HDAC1) | IC50 (HDAC1) [nM] | HDAC2 fold over HDAC6 IC50 (selectivity for HDAC6) (HDAC2) | IC50 (HDAC2) [nM] | HDAC3 fold over HDAC6 IC50 (selectivity for HDAC6) (HDAC3) | IC50 (HDAC3) [nM] | IC50 (HDAC6) [nM] | Structure (SMILES)
16 | (263.9x) | 1370 | (307.8x) | 1600 | (647.4x) | 3360 | 5 | O=C(NO)c1cnc(NC2(c3cccs3)CCCCC2)nc1 [Compound 154]
17 | (3.4x) | 12 | (5x) | 17 | (8.4x) | 29 | 4 | O=C(NO)c1cnc(NC2(c3cccc(F)c3F)CC2)nc1 [Compound 143]
18 | (153.3x) | 624 | (149.7x) | 609 | (260x) | 1060 | 4 | CC(C)(Nc1ncc(C(=O)NO)cn1)c1ccc(F)c(F)c1 [Compound 76]
19 | (11.4x) | 248 | (10.1x) | 220 | (29.9x) | 649 | 4 | COc1ccc(C2(Nc3ncc(C(=O)NO)cn3)CCCC2)cc1 [Compound 152]
20 | (90.9x) | 386 | (112.8x) | 479 | (184x) | 782 | 4 | COc1ccc(Cl)cc1C1(Nc2ncc(C(=O)NO)cn2)CC1 [Compound 139]
21 | (55.8x) | 223 | (86.7x) | 346 | (75.1x) | 300 | 4 | O=C(NO)c1cnc(NCc2ccccc2OC(F)(F)F)nc1 [Compound 47]
22 | (80.1x) | 339 | (78x) | 330 | (312.9x) | 1320 | 4 | O=C(NO)c1cnc(NC2(c3cccc(F)c3)CCOCC2)nc1 [Compound 149]
23 | (18.1x) | 67 | (26.2x) | 96 | (36.9x) | 135 | 4 | CC(Nc1ncc(C(=O)NO)cn1)c1ccncc1 (stereo not drawn) [Compound 85]
24 | (43.3x) | 140 | (48.9x) | 159 | (160.9x) | 521 | 3 | O=C(NO)c1cnc(NC2(c3ccccc3)CCC2)nc1 [Compound 130]
25 | (56.4x) | 110 | (116.2x) | 226 | (86.7x) | 169 | 2 | O=C(NO)c1cnc(NCc2ccccc2Cl)nc1 [Compound 33]
26 | (8.1x) | 16 | (8.9x) | 17 | (24.8x) | 49 | 2 | O=C(NO)c1cnc(NC2(c3ccc4c(c3)OCO4)CC2)nc1 [Compound 128]
27 | (14.9x) | 24 | (19.2x) | 30 | (27.2x) | 43 | 2 | O=C(NO)c1cnc(NCc2ccc(F)c(Cl)c2)nc1 [Compound 53]
28 | (2.7x) | 60 | (3.7x) | 9 | (8x) | 19 | 2 | O=C(NO)c1cnc(NCc2ccc(-c3ccccc3)cc2)nc1 [Compound 107]
29 | (19.9x) | 27 | (26.2x) | 36 | (30.2x) | 41 | 1 | O=C(NO)c1cnc(NC2(c3ccccc3Cl)CC2)nc1 [Compound 90]
30 | (3.6x) | 5 | (3.9x) | 6 | (5.9x) | 8 | 1 | O=C(NO)c1cnc(NC2(c3c(F)cccc3F)CC2)nc1 [Compound 124]
